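The compound was tested at five concentrations on cells cultured in 96-well plates, with a 48-hour exposure period. TGI marks complete inhibition of growth.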
Tests used:
Test in all cases: growth of human tumour cells (NCI), 48 h
BT-549 breast = test system: BT-549 breast
MALME-3M melanoma = test system: MALME-3M melanoma
NCI/ADR-RES ovarian = test system: NCI/ADR-RES ovarian
NCI-H226 lung = test system: NCI-H226 lung
OVCAR-5 ovarian = test system: OVCAR-5 ovarian
HL-60(TB) leukemia = test system: HL-60(TB) leukemia
MOLT-4 leukemia = test system: MOLT-4 leukemia
SN12C renal = test system: SN12C renal
SK-MEL-28 melanoma = test system: SK-MEL-28 melanoma
U251 CNS = test system: U251 CNS
OVCAR-8 ovarian = test system: OVCAR-8 ovarian
UACC-257 melanoma = test system: UACC-257 melanoma
786-0 renal = test system: 786-0 renal
KM12 colon = test system: KM12 colon
SR leukemia = test system: SR leukemia
NCI-H460 lung = test system: NCI-H460 lung

Structure (SMILES)	TGI (BT-549 breast) [µM]	TGI (MALME-3M melanoma) [µM]	TGI (NCI/ADR-RES ovarian) [µM]	TGI (NCI-H226 lung) [µM]	TGI (OVCAR-5 ovarian) [µM]	TGI (HL-60(TB) leukemia) [µM]	TGI (MOLT-4 leukemia) [µM]	TGI (SN12C renal) [µM]	TGI (SK-MEL-28 melanoma) [µM]	TGI (U251 CNS) [µM]	TGI (OVCAR-8 ovarian) [µM]	TGI (UACC-257 melanoma) [µM]	TGI (786-0 renal) [µM]	TGI (KM12 colon) [µM]	TGI (SR leukemia) [µM]	TGI (NCI-H460 lung) [µM]
O=c1[nH]c2nc3ccccc3c(=O)n2/c1=C/c1ccccc1	53.8	> 100	> 100	> 100	> 100	> 100	> 100	83.8	> 100	> 100	> 100	> 100	96.6	> 100	> 100	–
O=S(Cc1ccccc1)c1ccccc1Cn1cccc1 (stereo not drawn)	> 100	> 100	> 100	–	> 100	> 100	–	> 100	> 100	> 100	–	> 100	> 100	> 100	83.4	> 100
Cc1nc(C(N)=S)sc1C(=O)CC(=O)C(=O)Nc1ccc(Br)cc1	> 100	> 100	> 100	> 100	> 100	> 100	–	> 100	> 100	> 100	> 100	> 100	> 100	> 100	–	> 100
Cc1cc(C)n(-c2nc(-n3nc(C)cc3C)nc(-n3nc(C)cc3C)n2)n1	> 100	> 100	> 100	> 100	> 100	> 100	> 100	> 100	> 100	–	> 100	> 100	> 100	> 100	> 100	> 100
Cn1c(-c2ccccc2)cc(-c2ccc3c(c2)OCO3)c1-c1ccsc1	> 100	–	> 100	> 100	> 100	> 100	> 100	> 100	> 100	> 100	> 100	> 100	> 100	> 100	> 100	> 100
Cc1cccc2c(N)c3cccc(C(=O)NCC[N+](C)(C)Cc4ccccc4[N+](=O)[O-])c3nc12	> 39	25.8	> 37.1	> 100	60.2	–	9.34	> 39.9	> 71.1	> 27.6	> 30.7	> 70.7	12.7	> 100	2.09	16
CSc1nc(-c2ccccc2)[nH]c(=O)n1	> 100	> 100	> 100	> 100	> 100	> 100	> 100	> 100	> 100	> 100	> 100	> 100	> 100	> 100	–	–
Cc1cccc(N=Nc2c(C)nn(C(=O)CC(=O)Nc3ccc(Cl)cc3)c2C)c1	> 100	–	> 100	> 100	> 100	> 100	> 100	> 100	> 100	> 100	> 100	> 100	> 100	> 100	41.8	> 100
NC1CCN(c2nc3ccccc3c3c2CCCC3)CC1	25.9	19.8	28.8	24.3	19	8.84	9.36	21.5	10.6	14.8	32.8	4.31	13.3	15.2	–	13.5
CCOC(=O)C1CCCc2sc(N)c(C#N)c21 (stereo not drawn)	> 100	> 100	–	> 100	> 100	> 100	> 100	> 100	> 100	> 100	> 100	> 100	> 100	> 100	> 100	> 100
Cc1cc(C)c(/C=C2\C(=O)Nc3ccccc32)[nH]1	> 100	> 100	> 100	> 100	> 100	> 34.1	> 100	> 100	> 100	> 100	> 100	> 100	> 100	–	> 100	> 100
Nc1ccc(Oc2ccc(C34CC5CC(C3)CC(c3ccc(Oc6ccc(N)cc6C(F)(F)F)cc3)(C5)C4)cc2)c(C(F)(F)F)c1	52.1	58.5	54.9	35.7	70.3	> 100	> 100	> 100	> 100	27.6	29.5	40.3	> 100	67.6	–	37.9
O=C1NC(=O)C(CCC(=O)c2cccc3ccccc23)C(=O)N1	> 100	–	> 100	> 100	> 100	> 100	> 100	> 100	> 100	> 100	> 100	> 100	> 100	> 100	> 100	> 100
COc1cc(C2c3cc4c(cc3OC(NNC(N)=S)C2C)OCO4)cc(OC)c1OC (stereo not drawn)	62.3	> 100	> 100	21	> 100	0.631	–	> 100	> 100	> 42.9	> 55.1	> 92.7	> 100	> 35.6	1.42	> 100
COc1ccc2c(=O)c3ccoc3[nH]c2c1	> 100	–	> 100	> 100	–	> 100	> 100	–	> 100	> 100	> 100	> 100	> 100	> 100	> 100	> 100
Cc1[nH]c2ncn3[nH]c(=S)nc3c2c1Cc1ccccc1	> 100	> 100	> 100	> 100	> 100	> 100	> 100	> 100	> 100	> 100	> 100	> 100	> 100	> 100	–	> 100

Structure (SMILES)	TGI (BT-549 breast) [µM]	TGI (MALME-3M melanoma) [µM]	TGI (NCI/ADR-RES ovarian) [µM]	TGI (NCI-H226 lung) [µM]	TGI (OVCAR-5 ovarian) [µM]	TGI (HL-60(TB) leukemia) [µM]	TGI (MOLT-4 leukemia) [µM]	TGI (SN12C renal) [µM]	TGI (SK-MEL-28 melanoma) [µM]	TGI (U251 CNS) [µM]	TGI (OVCAR-8 ovarian) [µM]	TGI (UACC-257 melanoma) [µM]	TGI (786-0 renal) [µM]	TGI (KM12 colon) [µM]	TGI (SR leukemia) [µM]	TGI (NCI-H460 lung) [µM]
COCN1C(=O)[C@@H]2C[C@@H](O)CN2C(=O)c2ccccc21	> 100	> 100	> 100	–	> 100	> 100	> 100	> 100	> 100	> 100	> 100	> 100	> 100	> 100	> 100	> 100
N#CC(O)CCOCc1ccccc1 (stereo not drawn)	> 100	–	> 100	> 100	> 100	> 100	14.8	> 100	> 100	> 100	> 100	> 100	> 100	> 100	> 100	> 100
O=C1N[C@H]2C(=O)c3c(Br)sc(Br)c3[C@H]2O1	28.3	11.3	39	34.6	34.3	–	5.25	11.4	10.7	8.87	13	21.7	24.1	> 55.5	6.27	35
COc1c(Sc2c(SCSc3cnc4ccccc4c3Sc3cnc4ccccc4c3OC)cnc3ccccc23)cnc2ccccc12	> 100	–	> 100	–	> 100	26.3	> 100	> 100	> 100	> 100	> 100	> 100	> 100	> 100	56.7	> 100
Cc1ccc(S(=O)(=O)C2=Cc3ccccc3C2(O)c2ccccc2)cc1 (stereo not drawn)	63.1	–	76.6	64.5	> 100	29.6	> 100	34.3	31.1	87.7	81.2	> 10	> 10	37.6	92	54.6
Cc1ccc(S(=O)(=O)N(CCN)c2cc3c4c(c2)Oc2cccc5c2C4c2c(cccc2O3)O5)cc1	> 100	22.2	22.5	24.8	62.1	–	> 100	> 100	66.3	> 100	23.2	98.4	30.2	> 100	> 100	> 100
Oc1ccc(Br)cc1C=Nc1c(NC2CCCCC2)oc2ccc(Br)cc12	90.9	> 100	> 100	> 100	> 100	21.8	–	> 100	> 100	> 100	> 100	> 100	> 100	> 100	> 100	> 100
CC(NNC(=O)c1ccncc1)c1ccccc1 (stereo not drawn)	> 100	> 100	> 100	> 100	> 100	> 100	> 100	> 100	> 100	> 100	> 100	> 100	> 100	> 100	> 100	–
CCOC(=O)c1c(CN2CCNCC2)nc2ccc(Cl)cc2c1-c1ccccc1	27	3.56	–	33.4	36	4.38	4.57	15	7.04	26.7	11.7	3.62	3.15	7.18	4.51	6.32
COc1cc(/C=N/NC(=O)c2c(Cl)c(Cl)c(Cl)c(Cl)c2-c2nc3ccc(C(=O)c4ccccc4)cc3[nH]2)ccc1O	> 100	> 100	77	> 100	> 100	61.1	64.1	> 100	> 100	> 100	> 100	> 100	> 100	> 100	54.4	–
Cc1c(-c2ccccc2)c(C#N)c2nnn(-c3ccc(Cl)cc3)c(=O)n12	> 100	> 100	> 100	> 100	> 100	> 100	–	> 100	> 100	27.3	> 100	> 100	47.7	> 100	> 100	> 100
S=C(NCCc1ccccn1)N/N=C(\c1ccccc1)c1ccccn1	39.3	> 100	1.44	–	> 100	> 100	> 78.6	> 67.3	> 100	> 100	17.4	> 70.5	> 56.8	> 91.5	> 57.7	> 100
Cn1c(=O)c2c(nc3n2CCCC(=O)N3CCCCl)n(C)c1=O	> 100	–	> 100	> 100	> 100	> 100	> 100	> 100	> 100	> 100	> 100	> 100	> 100	> 100	> 100	> 100
COc1ccc(C2(CC(C)C)CCNC2)cc1OC (stereo not drawn)	> 100	> 100	> 100	> 100	> 100	> 100	–	> 100	> 100	> 100	> 100	> 100	> 100	> 100	> 100	> 100
CCC1C(NC(=O)OC)C(=O)N1[C@@H](C)c1ccccc1 (stereo partly drawn)	> 100	> 100	> 100	> 100	> 100	–	> 100	> 100	> 100	> 100	> 100	> 100	> 100	> 100	> 100	> 100

Source: PubChem BioAssay (NCI)
